Experimental data taken from patent publication US12539292B2, “BRM targeting compounds and associated methods of use” (Arvinas Operations, Inc., priority 2018, dated 2026).
Like-named read-outs stand apart in the source and are kept apart here.

Molecular target: T1, BRM (Homo sapiens, UniProt P51531)
T1 construct: In-Cell Western Screen of BRM Degradation in SW1573 Cells; endogenous in cells; host or cells: SW1573
Assay: In-cell Western screen of BRM degradation in SW1573 cells (Dmax and DC50)
Format: cell-based
Outline: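 BRM levels were read by LI-COR in-cell Western after two-channel (800/680 nm) immunostaining of fixed, Triton-permeabilised SW1573 cells.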

[1] = BRM degradation, SW1573 cells, Table 2D, read-out: **Dmax (%) (% degraded)
[2] = BRM degradation, SW1573 cells, Table 2D, read-out: *DC50
[3] = BRM degradation, SW1573 cells, read-out: DC50
[4] = BRM degradation, SW1573 cells, when tested at the top concentration of between 0.3 and 10 μM, read-out: Dmax (%) (% degraded)
[5] = BRM degradation, SW1573 cells, read-out: Dmax (% degraded)
[6] = SW1573, % degraded, when tested at the top concentration of between 0.3 and 10 μM, read-out: BRM Dmax (%)
[7] = target protein degradation, read-out: BRM DC50

T1 sequence (P51531 whole entry): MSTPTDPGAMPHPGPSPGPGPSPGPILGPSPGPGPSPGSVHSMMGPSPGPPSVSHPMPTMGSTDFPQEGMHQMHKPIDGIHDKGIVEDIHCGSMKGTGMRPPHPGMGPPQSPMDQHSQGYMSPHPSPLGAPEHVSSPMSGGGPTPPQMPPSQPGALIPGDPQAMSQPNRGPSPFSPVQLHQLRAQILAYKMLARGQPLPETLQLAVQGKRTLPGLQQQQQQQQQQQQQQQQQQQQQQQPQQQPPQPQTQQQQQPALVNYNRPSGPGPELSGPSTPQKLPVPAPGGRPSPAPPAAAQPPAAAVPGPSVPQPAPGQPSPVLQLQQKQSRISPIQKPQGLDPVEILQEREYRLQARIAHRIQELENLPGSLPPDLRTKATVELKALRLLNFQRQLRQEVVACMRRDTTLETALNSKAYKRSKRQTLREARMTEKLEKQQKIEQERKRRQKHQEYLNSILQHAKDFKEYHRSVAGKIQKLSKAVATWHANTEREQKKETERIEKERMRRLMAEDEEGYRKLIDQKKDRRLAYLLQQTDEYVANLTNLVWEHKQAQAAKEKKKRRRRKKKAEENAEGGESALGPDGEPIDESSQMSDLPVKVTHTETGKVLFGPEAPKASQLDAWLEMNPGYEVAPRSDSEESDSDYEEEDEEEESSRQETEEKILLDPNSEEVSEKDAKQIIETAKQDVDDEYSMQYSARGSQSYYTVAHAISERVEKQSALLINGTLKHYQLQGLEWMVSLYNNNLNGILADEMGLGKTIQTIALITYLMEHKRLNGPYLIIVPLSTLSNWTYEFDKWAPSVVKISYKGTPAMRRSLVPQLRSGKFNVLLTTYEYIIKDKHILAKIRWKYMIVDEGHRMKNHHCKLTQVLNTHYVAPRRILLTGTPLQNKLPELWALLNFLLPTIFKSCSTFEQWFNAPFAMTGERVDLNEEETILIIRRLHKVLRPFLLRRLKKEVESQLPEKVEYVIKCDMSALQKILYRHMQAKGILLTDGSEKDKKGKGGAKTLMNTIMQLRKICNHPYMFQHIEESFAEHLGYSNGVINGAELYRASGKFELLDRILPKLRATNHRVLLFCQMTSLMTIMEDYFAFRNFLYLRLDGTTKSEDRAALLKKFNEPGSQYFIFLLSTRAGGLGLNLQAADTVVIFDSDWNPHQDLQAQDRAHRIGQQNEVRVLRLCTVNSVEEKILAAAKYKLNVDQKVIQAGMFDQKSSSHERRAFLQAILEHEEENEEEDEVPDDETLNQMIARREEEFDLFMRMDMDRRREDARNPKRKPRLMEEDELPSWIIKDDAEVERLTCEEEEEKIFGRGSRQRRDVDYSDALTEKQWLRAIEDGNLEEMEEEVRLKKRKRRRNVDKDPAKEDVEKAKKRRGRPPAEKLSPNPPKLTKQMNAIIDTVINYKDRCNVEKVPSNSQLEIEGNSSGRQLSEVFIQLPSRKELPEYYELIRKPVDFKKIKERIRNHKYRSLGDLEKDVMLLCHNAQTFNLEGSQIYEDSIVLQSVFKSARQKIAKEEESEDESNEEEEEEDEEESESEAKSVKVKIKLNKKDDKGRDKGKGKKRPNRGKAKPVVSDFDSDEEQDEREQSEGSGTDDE

SMILES | Dmax [1] [%] | DC50 [2] [nM] | DC50 [3] [nM] | other results
Cc1ncsc1-c1ccc([C@H](C)NC(=O)[C@@H]2C[C@@H](O)CN2C(=O)[C@@H](c2cc(N3CCN(CCN4CCC(C(C)n5cc(-c6cc(-c7ccccc7O)nnc6N)cn5)CC4)CC3)no2)C(C)C)cc1 (stereo partly drawn) [compound 591, (2S,4R)-1-((2R)-2-(3-(4-(2-(4-(1-(4-(3-amino-6-(2-hydroxyphenyl)pyridazin-4-yl)-1H-pyrazol-1-yl)ethyl)piperidin-1-yl)ethyl)piperazin-1-yl)isoxazol-5-yl)-3-methylbutanoyl)-4-hydroxy-N-((S)-1-(4-(4-methylthiazol-5-yl)phenyl)ethyl)pyrrolidine-2-carboxamide] | > 75 | < 2.5 | – | –
Cc1ncsc1-c1ccc(CNC(=O)[C@@H]2C[C@@H](O)CN2C(=O)[C@H](c2cc(OCCOCCOCCOc3cc(N4C5CCC4CN(c4cc(-c6ccccc6O)nnc4N)C5)ccn3)no2)C(C)C)cc1 [compound 27, (2S,4R)-1-[(2S)-2-[3-[2-(2-[2-[(4-[3-[3-amino-6-(2-hydroxyphenyl)pyridazin-4-yl]-3,8-diazabicyclo[3.2.1]octan-8-yl]pyridin-2-yl)oxy]ethoxy]ethoxy)ethoxy]-1,2-oxazol-5-yl]-3-methylbutanoyl]-4-hydroxy-N-[[4-(4-methyl-1,3-thiazol-5-yl)phenyl]methyl]pyrrolidine-2-carboxamide] | – | – | > 30 | Dmax [4]: > 75%
Cc1ncsc1-c1ccc([C@H](CC#N)NC(=O)[C@@H]2C[C@@H](O)CN2C(=O)[C@@H](c2cc(N3CCC(CN4CCC(O[C@H]5C[C@H](Oc6cc(N7C8CCC7CN(c7cc(-c9ccccc9O)nnc7N)C8)ccn6)C5)CC4)CC3)no2)C(C)C)cc1 [compound 671, (2S,4R)-1-((2R)-2-(3-(4-((4-((1r,3r)-3-((4-(3-(3-amino-6-(2-hydroxyphenyl)pyridazin-4-yl)-3,8-diazabicyclo[3.2.1]octan-8-yl)pyridin-2-yl)oxy)cyclobutoxy)piperidin-1-yl)methyl)piperidin-1-yl)isoxazol-5-yl)-3-methylbutanoyl)-N-((S)-2-cyano-1-(4-(4-methylthiazol-5-yl)phenyl)ethyl)-4-hydroxypyrrolidine-2-carboxamide] | – | – | < 2.5 | Dmax [5]: > 75%
Cc1ncsc1-c1ccc([C@H](C)NC(=O)[C@@H]2C[C@@H](O)CN2C(=O)[C@@H](c2cc(OCCN3CC4CC(C3)N4CCOc3cc(N4C5CCC4CN(c4cc(-c6ccccc6O)nnc4N)C5)ccn3)no2)C(C)C)cc1 [compound 133, (2S,4R)-1-((2R)-2-(3-(2-(6-(2-((4-(3-(3-amino-6-(2-hydroxyphenyl)pyridazin-4-yl)-3,8-diazabicyclo[3.2.1]octan-8-yl)pyridin-2-yl)oxy)ethyl)-3,6-diazabicyclo[3.1.1]heptan-3-yl)ethoxy)isoxazol-5-yl)-3-methylbutanoyl)-4-hydroxy-N-((S)-1-(4-(4-methylthiazol-5-yl)phenyl)ethyl)pyrrolidine-2-carboxamide] | – | – | < 2.5 | Dmax [4]: > 75%
Cc1ncsc1-c1ccc(CNC(=O)[C@@H]2C[C@@H](O)CN2C(=O)[C@@H](NC(=O)COCCOCCOCCOc2cncc(N3C4CCC3CN(c3cc(-c5ccccc5O)nnc3N)C4)n2)C(C)(C)C)cc1 [compound 34, (2S,4R)-1-[(2S)-2-[1-(6-[3-[3-amino-6-(2-hydroxyphenyl)pyridazin-4-yl]-3,8-diazabicyclo[3.2.1]octan-8-yl]pyrazin-2-yl)-1,4,7,10-tetraoxadodecan-12-amido]-3,3-dimethylbutanoyl]-4-hydroxy-N-[[4-(4-methyl-1,3-thiazol-5-yl)phenyl]methyl]pyrrolidine-2-carboxamide] | – | – | > 30 | Dmax [4]: > 75%
CC(C)[C@@H](C(=O)N1C[C@H](O)C[C@H]1C(=O)N[C@@H](C)c1ccc(-c2scnc2N)cc1)c1cc(N2CCC(CN3CCC(O[C@H]4C[C@H](Oc5cc(N6C7CCC6CN(c6cc(-c8ccccc8O)nnc6N)C7)ccn5)C4)CC3)CC2)no1 [compound 630, (2S,4R)-1-((2R)-2-(3-(4-((4-((1r,3r)-3-((4-(3-(3-amino-6-(2-hydroxyphenyl)pyridazin-4-yl)-3,8-diazabicyclo[3.2.1]octan-8-yl)pyridin-2-yl)oxy)cyclobutoxy)piperidin-1-yl)methyl)piperidin-1-yl)isoxazol-5-yl)-3-methylbutanoyl)-N-((S)-1-(4-(4-aminothiazol-5-yl)phenyl)ethyl)-4-hydroxypyrrolidine-2-carboxamide] | – | – | < 2.5 | Dmax [5]: > 75%
Cc1ncsc1-c1ccc([C@H](C)NC(=O)[C@@H]2C[C@@H](O)CN2C(=O)[C@@H](c2cc(N3CCN(CC4CCN(C[C@H]5C[C@H](Oc6cc(N7C8CCC7CN(c7cc(-c9ccccc9O)nnc7N)C8)ccn6)C5)CC4)CC3)no2)C(C)C)cc1 [compound 458, (2S,4R)-1-((2R)-2-(3-(4-((1-(((1r,3r)-3-((4-(3-(3-amino-6-(2-hydroxyphenyl)pyridazin-4-yl)-3,8-diazabicyclo[3.2.1]octan-8-yl)pyridin-2-yl)oxy)cyclobutyl)methyl)piperidin-4-yl)methyl)piperazin-1-yl)isoxazol-5-yl)-3-methylbutanoyl)-4-hydroxy-N-((S)-1-(4-(4-methylthiazol-5-yl)phenyl)ethyl)pyrrolidine-2-carboxamide] | – | – | – | Dmax [6]: > 75%; DC50 [7]: < 2.5 nM
Cc1ncsc1-c1ccc([C@H](C)NC(=O)[C@@H]2C[C@@H](O)CN2C(=O)[C@@H](c2cc(OCCC3CCN(C[C@H]4C[C@H](Oc5cc(N6C7CCC6CN(c6cc(-c8ccccc8O)nnc6N)C7)ccn5)C4)CC3)no2)C(C)C)c(F)c1F [compound 588, (2S,4R)-1-((2R)-2-(3-(2-(1-(((1r,3R)-3-((4-(3-(3-amino-6-(2-hydroxyphenyl)pyridazin-4-yl)-3,8-diazabicyclo[3.2.1]octan-8-yl)pyridin-2-yl)oxy)cyclobutyl)methyl)piperidin-4-yl)ethoxy)isoxazol-5-yl)-3-methylbutanoyl)-N-((S)-1-(2,3-difluoro-4-(4-methylthiazol-5-yl)phenyl)ethyl)-4-hydroxypyrrolidine-2-carboxamide] | > 75 | < 2.5 | – | –
COc1nc(-c2scnc2C)c(F)cc1[C@H](C)NC(=O)[C@@H]1C[C@@H](O)CN1C(=O)[C@@H](c1cc(OCCN2CCC(O[C@H]3C[C@H](Oc4cc(N5C6CCC5CN(c5cc(-c7ccccc7O)nnc5N)C6)ccn4)C3)CC2)no1)C(C)C [compound 562, (2S,4R)-1-((2R)-2-(3-(2-(4-((1r,3R)-3-((4-(3-(3-amino-6-(2-hydroxyphenyl)pyridazin-4-yl)-3,8-diazabicyclo[3.2.1]octan-8-yl)pyridin-2-yl)oxy)cyclobutoxy)piperidin-1-yl)ethoxy)isoxazol-5-yl)-3-methylbutanoyl)-N-((S)-1-(5-fluoro-2-methoxy-6-(4-methylthiazol-5-yl)pyridin-3-yl)ethyl)-4-hydroxypyrrolidine-2-carboxamide] | > 75 | < 2.5 | – | –
Cc1ncsc1-c1ccc([C@H](C)NC(=O)[C@@H]2C[C@@H](O)CN2C(=O)[C@@H](c2cc(OCCN3CCC(O[C@H]4C[C@H](Oc5nccc(N6C7CCC6CN(c6cc(-c8ccccc8O)nnc6N)C7)n5)C4)CC3)no2)C(C)C)cc1 [compound 464, (2S,4R)-1-((2R)-2-(3-(2-(4-((1r,3R)-3-((4-(3-(3-amino-6-(2-hydroxyphenyl)pyridazin-4-yl)-3,8-diazabicyclo[3.2.1]octan-8-yl)pyrimidin-2-yl)oxy)cyclobutoxy)piperidin-1-yl)ethoxy)isoxazol-5-yl)-3-methylbutanoyl)-4-hydroxy-N-((S)-1-(4-(4-methylthiazol-5-yl)phenyl)ethyl)pyrrolidine-2-carboxamide] | – | – | – | Dmax [6]: > 75%; DC50 [7]: < 2.5 nM
Cc1ncsc1-c1ccc([C@H](C)NC(=O)[C@@H]2C[C@@H](O)CN2C(=O)[C@@H](c2cc(OCCC3CCN(C(=O)[C@H]4C[C@H](Oc5cc(N6C7CCC6CN(c6cc(-c8ccccc8O)nnc6N)C7)ccn5)C4)CC3)no2)C(C)C)cn1 [compound 261, (2S,4R)-1-((2R)-2-(3-(2-(1-((1r,3R)-3-((4-(3-(3-amino-6-(2-hydroxyphenyl)pyridazin-4-yl)-3,8-diazabicyclo[3.2.1]octan-8-yl)pyridin-2-yl)oxy)cyclobutane-1-carbonyl)piperidin-4-yl)ethoxy)isoxazol-5-yl)-3-methylbutanoyl)-4-hydroxy-N-((S)-1-(6-(4-methylthiazol-5-yl)pyridin-3-yl)ethyl)pyrrolidine-2-carboxamide] | – | – | < 2.5 | Dmax (BRM degradation, SW1573 cells, tested at the top concentration of between 0.3 and 10 μM, read-out: Dmax (%) (% degraded)): > 75%
Cc1ncsc1-c1ccc([C@H](C)NC(=O)[C@@H]2C[C@@H](O)CN2C(=O)[C@@H](c2cc(N3CCC(OC4CCN([C@H]5C[C@H](CN6CCOC7(CCN(c8cc(-c9ccccc9O)nnc8N)CC7)C6)C5)CC4)CC3)no2)C(C)C)cc1 [compound 616, (2S,4R)-1-((R)-2-(3-(4-((1-((1r,3R)-3-((9-(3-amino-6-(2-hydroxyphenyl)pyridazin-4-yl)-1-oxa-4,9-diazaspiro[5.5]undecan-4-yl)methyl)cyclobutyl)piperidin-4-yl)oxy)piperidin-1-yl)isoxazol-5-yl)-3-methylbutanoyl)-4-hydroxy-N-((S)-1-(4-(4-methylthiazol-5-yl)phenyl)ethyl)pyrrolidine-2-carboxamide] | > 75 | < 2.5 | – | –
